Laboratory results reported in ChEMBL document CHEMBL1147755, “5-heteroatom substituted pyrazoles as canine COX-2 inhibitors. Part 1: Structure-activity relationship studies of 5-alkylamino pyrazoles and discovery of a potent, selective, and orally active analog” (Bioorg Med Chem Lett, 2006).
Calls of active or inactive are those of the source. The calls are words filed in the database; no cut-off is given here.

Tests used:
[1] = target: T1, Prostaglandin G/H synthase 1 (Canis lupus familiaris, UniProt Q8HZR1)
T1 sequence (Q8HZR1 whole entry): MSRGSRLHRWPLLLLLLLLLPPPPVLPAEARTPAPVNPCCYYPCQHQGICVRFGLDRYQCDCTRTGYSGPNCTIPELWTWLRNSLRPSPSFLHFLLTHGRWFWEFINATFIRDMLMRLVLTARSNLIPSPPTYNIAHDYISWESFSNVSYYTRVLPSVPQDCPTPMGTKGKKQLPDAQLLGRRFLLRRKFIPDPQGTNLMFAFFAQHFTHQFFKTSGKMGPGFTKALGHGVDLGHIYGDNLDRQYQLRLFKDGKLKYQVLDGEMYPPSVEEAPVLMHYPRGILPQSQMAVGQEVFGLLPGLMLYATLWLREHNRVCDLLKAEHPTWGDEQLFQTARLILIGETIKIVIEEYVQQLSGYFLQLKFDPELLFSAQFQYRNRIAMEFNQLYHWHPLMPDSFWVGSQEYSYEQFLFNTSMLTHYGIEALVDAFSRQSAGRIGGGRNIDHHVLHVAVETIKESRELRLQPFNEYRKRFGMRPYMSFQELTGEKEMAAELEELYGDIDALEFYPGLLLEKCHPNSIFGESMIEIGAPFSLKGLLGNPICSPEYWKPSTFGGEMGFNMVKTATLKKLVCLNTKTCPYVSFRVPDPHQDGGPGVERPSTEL
Description: Inhibitory activity against COX1 in canine whole blood

[2] = target: T2, Cyclooxygenase-2 (Canis lupus familiaris, UniProt Q8SPQ9)
T2 sequence (Q8SPQ9 whole entry): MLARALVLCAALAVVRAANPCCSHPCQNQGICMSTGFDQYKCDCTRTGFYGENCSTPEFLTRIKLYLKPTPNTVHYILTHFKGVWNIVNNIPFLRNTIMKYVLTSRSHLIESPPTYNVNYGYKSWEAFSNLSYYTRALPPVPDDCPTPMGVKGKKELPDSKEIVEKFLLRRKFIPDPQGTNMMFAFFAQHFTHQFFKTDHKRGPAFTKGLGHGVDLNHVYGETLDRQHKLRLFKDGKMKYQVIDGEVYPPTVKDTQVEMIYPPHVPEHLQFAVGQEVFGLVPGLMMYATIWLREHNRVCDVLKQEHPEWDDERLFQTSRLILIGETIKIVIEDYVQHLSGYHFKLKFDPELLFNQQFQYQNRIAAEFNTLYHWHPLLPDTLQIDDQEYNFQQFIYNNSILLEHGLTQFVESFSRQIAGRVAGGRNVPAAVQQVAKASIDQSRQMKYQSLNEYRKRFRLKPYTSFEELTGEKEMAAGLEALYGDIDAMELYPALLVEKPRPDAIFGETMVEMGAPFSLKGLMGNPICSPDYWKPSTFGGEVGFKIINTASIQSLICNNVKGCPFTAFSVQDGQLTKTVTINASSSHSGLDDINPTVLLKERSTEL
Description: Inhibitory activity against COX2 in canine whole blood

[3] = species: Canis lupus familiaris; assay: Selectivity of COX1 over COX2 in canine whole blood assay; assay type: tissue-based
[4] = Tmax in dog administered at 2 mg/kg, po; assay type: ADME, organism-based, Canis lupus familiaris; design: dose 2 mg/kg, route oral; settings: in vivo
[5] = Half life in dog administered at 2 mg/kg, po; assay type: ADME, organism-based, Canis lupus familiaris; design: dose 2 mg/kg, route oral; settings: in vivo
[6] = Cmax in dog administered at 2 mg/kg, po; assay type: ADME, organism-based, Canis lupus familiaris; design: dose 2 mg/kg, route oral; settings: in vivo
[7] = tested on: Canis familiaris; assay: AUC in dog administered at 2 mg/kg, po; assay type: ADME, organism-based, Canis lupus familiaris, Plasma; design: dose 2 mg/kg, route oral; settings: in vivo
[8] = tested on: Canis familiaris; assay: Decrease in lameness induced by synovitis in knee joints of Beagle dogs at 4 mg/kg; assay type: functional, organism-based; design: dose 4 mg/kg; settings: Canis lupus familiaris, Knee joint
[9] = Cmax in cat administered at 0.5 mg/kg, sc; assay type: ADME, organism-based, Felis catus; design: dose 0.5 mg/kg, route subcutaneous; settings: in vivo
[10] = Tmax in cat administered at 0.5 mg/kg, sc; assay type: ADME, organism-based, Felis catus; design: dose 0.5 mg/kg, route subcutaneous; settings: in vivo
[11] = Half life in cat administered at 0.5 mg/kg, sc; assay type: ADME, organism-based, Felis catus; design: dose 0.5 mg/kg, route subcutaneous; settings: in vivo
[12] = AUC in cat administered at 0.5 mg/kg, sc; assay type: ADME, organism-based, Felis catus; design: dose 0.5 mg/kg, route subcutaneous; settings: plasma

SMILES	IC50 [1]	IC50 [2]	Ratio IC50 [3]	Tmax [4]	half-life [5]	Cmax [6]	AUC [7]	Activity [8]	Cmax [9]	Tmax [10]	half-life [11]	AUC [12]
N#Cc1c(C(F)(F)F)nn(-c2ccc(S(N)(=O)=O)cn2)c1NC1CC2CCC1C2 (configuration not stated)	15500 nM	140 nM	107									
CC(C)(C)CNc1c(C#N)c(C(F)(F)F)nn1-c1ccc(S(N)(=O)=O)cn1	13200 nM	130 nM	98.7									
CCC(C)CNc1c(C#N)c(C(F)F)nn1-c1ccc(S(N)(=O)=O)cn1 (configuration not stated)	4000 nM	200 nM	21.9									
CS(=O)(=O)c1ccc(-n2nc(C(F)F)c(C#N)c2NCC2OCCO2)nc1	> 50000 nM	190 nM	> 259									
CC1CCCN(c2c(C#N)c(C(F)F)nn2-c2ccc(S(C)(=O)=O)cn2)C1 (configuration not stated)	2000 nM	30 nM	75	0.5 h	4.6 h	151 ng/mL	450 ng·h/mL					
CCC(CC)Nc1c(C#N)c(C(F)(F)F)nn1-c1ccc(S(C)(=O)=O)cn1	6700 nM	197 nM	33.8									
C[C@@H]1CN(c2c(C#N)c(C(F)(F)F)nn2-c2ccc(S(C)(=O)=O)cn2)C[C@H](C)O1	> 50000 nM	140 nM	> 357	1 h	30 h	134 ng/mL	1950 ng·h/mL					
CS(=O)(=O)c1ccc(-n2nc(C(F)(F)F)c(C#N)c2NC2CC3CCC2C3)nc1 (configuration not stated)	15500 nM	144 nM	107									
CC(C)Nc1c(C#N)c(C(F)(F)F)nn1-c1ccc(S(C)(=O)=O)cn1	40800 nM	360 nM	114									
CC1CCCCC1Nc1c(C#N)c(C(F)(F)F)nn1-c1ccc(S(C)(=O)=O)cn1 (configuration not stated)	10800 nM	297 nM	36									
Cc1ccc(CNc2c(C#N)c(C(F)(F)F)nn2-c2ccc(S(C)(=O)=O)cn2)cc1	21500 nM	115 nM	187									
CS(=O)(=O)c1ccc(-n2nc(C(F)(F)F)c(C#N)c2NCC2CC2)nc1	22000 nM	110 nM	200									
CS(=O)(=O)c1ccc(-n2nc(C(F)(F)F)c(C#N)c2NCc2cccs2)nc1	5600 nM	125 nM	44.5									
CC1CC(C)CN(c2c(C#N)c(C(F)(F)F)nn2-c2ccc(S(C)(=O)=O)cn2)C1 (configuration not stated)	> 50000 nM	95 nM	> 526									
N#Cc1c(C(F)(F)F)nn(-c2ccc(S(N)(=O)=O)cn2)c1NCC1CCCO1 (configuration not stated)	14600 nM	1250 nM	11.7	1.5 h	1 h	528 ng/mL	1360 ng·h/mL					
CS(=O)(=O)c1ccc(-n2nc(C(F)F)c(C#N)c2N2CCCCCC2)nc1	12900 nM	130 nM	99.3	0.8 h	2.1 h	92 ng/mL	281 ng·h/mL					
CS(=O)(=O)c1ccc(-n2nc(C(F)(F)F)c(C#N)c2NCC2CCCO2)nc1 (configuration not stated)	16500 nM	63 nM	262	0.5 h	2 h	86 ng/mL	118 ng·h/mL					
CC(C)C(C)Nc1c(C#N)c(C(F)(F)F)nn1-c1ccc(S(C)(=O)=O)cn1 (configuration not stated)	3400 nM	132 nM	25.8									
C[C@@H]1CN(c2c(C#N)c(C(F)F)nn2-c2ccc(S(N)(=O)=O)cn2)C[C@H](C)O1	> 50000 nM	5000 nM	> 10									
CS(=O)(=O)c1ccc(-n2nc(C(F)F)c(C#N)c2NC2CC3CCC2C3)nc1 (configuration not stated)	20900 nM	420 nM	49.8									
CC(C)(C)CNc1c(C#N)c(C(F)F)nn1-c1ccc(S(N)(=O)=O)cn1	18000 nM	360 nM	48.2									
CS(=O)(=O)c1ccc(-n2nc(C(F)(F)F)c(C#N)c2NCC2OCCO2)nc1	> 50000 nM	126 nM	> 397									
CC(C)(C)CNc1c(C#N)c(C(F)(F)F)nn1-c1ccc(S(C)(=O)=O)cn1	> 50000 nM	230 nM	> 217									
CC(C)(C)CNc1c(C#N)c(C(F)F)nn1-c1ccc(S(C)(=O)=O)cn1	36300 nM	200 nM	180									
CC1CC(C)CN(c2c(C#N)c(C(F)(F)F)nn2-c2ccc(S(N)(=O)=O)cn2)C1 (configuration not stated)	42600 nM	1870 nM	22.8									
C[C@@H]1C[C@H](C)CN(c2c(C#N)c(C(F)F)nn2-c2ccc(S(N)(=O)=O)cn2)C1	7000 nM	210 nM	34.7	0.5 h	1.5 h	506 ng/mL	2100 ng·h/mL					
C[C@@H]1CN(c2c(C#N)c(C(F)F)nn2-c2ccc(S(C)(=O)=O)cn2)C[C@H](C)O1	43800 nM	240 nM	186	1.4 h	11 h	815 ng/mL	4830 ng·h/mL	Active	194 ng/mL	28 h	60 h	26800 ng·h/mL
CS(=O)(=O)c1ccc(-n2nc(C(F)(F)F)c(C#N)c2N2CCCCC2)nc1	> 50000 nM	150 nM	> 325									
CCC(C)CNc1c(C#N)c(C(F)(F)F)nn1-c1ccc(S(N)(=O)=O)cn1 (configuration not stated)	4500 nM	190 nM	23.1	1.3 h	2.4 h	310 ng/mL	910 ng·h/mL					
C[C@@H]1CN(c2c(C#N)c(C(F)(F)F)nn2-c2ccc(S(N)(=O)=O)cn2)C[C@H](C)O1	> 50000 nM	7900 nM	> 6.3									
